In patent publication US20240270821A1, “GIP/GLP1/GCG TRI-RECEPTOR AGONISTS AND USES THEREOF” (priority 2023, published 2024):
Read-outs that look alike come from different tables or passages of the source. Marks after values point to notes of the source that are not given here. Starred links: 1 amine or outer side, 2 acyl side, 3 side chain; linkers in the order of their positions; H or OH if unused. Non-standard residues stand in square brackets, D forms with d. Residues, ends and D or L forms follow the SMILES beside them. Groups on a side chain read outwards from the residue. No end group written: not given here. *: point of attachment. C18 diacid = O=C(O)CCCCCCCCCCCCCCCCC(=O)*; αMePhe(2-F) = C[C@](N)(Cc1ccccc1F)C(=O)O; γGlu = O=C(O)[C@H](CCC(=O)[*:2])N[*:1]; αMeY = C[C@](N)(Cc1ccc(O)cc1)C(=O)O; 4Pal = N[C@@H](Cc1ccncc1)C(=O)O; αMeL = CC(C)C[C@](C)(N)C(=O)O; αMeS = C[C@](N)(CO)C(=O)O; Orn = NCCC[C@H](N)C(=O)O; AEEA = NCCOCCOCC(=O)O; Aib = CC(C)(N)C(=O)O

Assays:
hGIPR [1] = target: T1, hGIPR (Homo sapiens, UniProt P48546); experiment: Functional cAMP activity in the presence of 1% HSA; assay type: cell-based; conditions: read-out: cAMP Rel EC50, hGIPR
T1 sequence (P48546 22-466): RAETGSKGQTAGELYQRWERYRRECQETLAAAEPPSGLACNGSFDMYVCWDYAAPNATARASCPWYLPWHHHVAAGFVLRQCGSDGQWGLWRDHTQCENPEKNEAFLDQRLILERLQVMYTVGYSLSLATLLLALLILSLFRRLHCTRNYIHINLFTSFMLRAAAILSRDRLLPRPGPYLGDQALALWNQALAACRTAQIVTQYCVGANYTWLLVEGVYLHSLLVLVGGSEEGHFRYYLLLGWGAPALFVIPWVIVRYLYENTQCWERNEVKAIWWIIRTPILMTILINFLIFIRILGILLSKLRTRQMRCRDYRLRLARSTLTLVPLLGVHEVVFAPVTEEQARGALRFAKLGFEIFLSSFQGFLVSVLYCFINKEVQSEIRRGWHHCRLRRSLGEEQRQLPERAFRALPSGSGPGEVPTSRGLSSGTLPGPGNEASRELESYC

hGLP-1R [2] = target: T2, hGLP-1R (Homo sapiens, UniProt P43220); experiment: Functional cAMP activity in the presence of 1% HSA; assay type: cell-based; conditions: read-out: cAMP Rel EC50, hGLP-1R
human GcgR = human GcgR (Homo sapiens, UniProt P47871); experiment: Functional cAMP activity in the presence of 1% HSA; assay type: cell-based; conditions: read-out: cAMP Rel EC50, hGcgR
hGIPR [3] = target: T1, hGIPR; experiment: Functional cAMP activation in the presence of 0.1% casein (no HSA); assay type: cell-based; conditions: read-out: Relative cAMP EC50, hGIPR;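 for Relative cAMP EC50, hGIPR: intracellular cAMP rise after 30 min at 37 °C read by HTRF against a standard curve, scaled between buffer alone (0%) and top control ligand concentration (100%), four-parameter fit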;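 for Relative cAMP EC50, hGLP-1R: intracellular cAMP rise after 30 min at 37 °C read by HTRF, normalized between buffer only (0%) and maximal control ligand (100%), four-parameter variable-slope fit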;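 for Relative cAMP EC50, hGcgR: intracellular cAMP rise after 30 min at 37 °C, read by HTRF against a cAMP standard curve, scaled from buffer only (0%) to maximal control ligand response (100%)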
hGLP-1R [4] = target: T2, hGLP-1R; experiment: as above; assay type: cell-based; conditions: read-out: Relative cAMP EC50, hGLP-1R
hGcgR = hGcgR (Homo sapiens, UniProt P47871); experiment: as above; assay type: cell-based; conditions: read-out: Relative cAMP EC50, hGcgR;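 note: intracellular cAMP rise after 30 min at 37 °C, read by HTRF against a cAMP standard curve, scaled from buffer only (0%) to maximal control ligand response (100%)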
in vivo = experiment: in vivo; design: species or system Sprague Dawley rats; conditions: male, Sprague Dawley, rat, 4 mg/kg
[5] = Body weight in diet-induced obese C57BL/6 mice; assay type: in vivo; conditions: 10 nmol/kg SC QD, percent of starting weight, DIO mice, mean ± SEM n=5
Procedure, shortened: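 Male C57BL/6 DIO mice (41-50 g, 5 per group, randomized by weight) on calorie-rich diet received subcutaneous doses 30-90 min before dark onset, QD or Q3D for 9-16 days. Body weight measured daily, expressed as percent of starting weight, mean±SEM.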

[6] = in the presence of 0.1% casein (no HSA), geometric mean

Sequence of hGcgR (P47871 26-477): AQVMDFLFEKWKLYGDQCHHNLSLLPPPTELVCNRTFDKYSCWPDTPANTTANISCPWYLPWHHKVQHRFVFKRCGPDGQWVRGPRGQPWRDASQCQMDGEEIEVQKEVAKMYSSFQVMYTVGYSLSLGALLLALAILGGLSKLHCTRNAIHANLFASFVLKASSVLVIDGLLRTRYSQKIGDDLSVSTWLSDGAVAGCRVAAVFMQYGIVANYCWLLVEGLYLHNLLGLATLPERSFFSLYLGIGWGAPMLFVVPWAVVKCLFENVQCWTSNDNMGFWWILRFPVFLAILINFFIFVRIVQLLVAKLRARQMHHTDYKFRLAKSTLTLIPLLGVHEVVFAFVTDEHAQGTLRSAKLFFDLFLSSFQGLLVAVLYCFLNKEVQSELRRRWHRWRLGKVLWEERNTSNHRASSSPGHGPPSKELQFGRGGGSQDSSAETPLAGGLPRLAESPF
Sequence of human GcgR (P47871 26-477): as above
T2 sequence (P43220 24-463): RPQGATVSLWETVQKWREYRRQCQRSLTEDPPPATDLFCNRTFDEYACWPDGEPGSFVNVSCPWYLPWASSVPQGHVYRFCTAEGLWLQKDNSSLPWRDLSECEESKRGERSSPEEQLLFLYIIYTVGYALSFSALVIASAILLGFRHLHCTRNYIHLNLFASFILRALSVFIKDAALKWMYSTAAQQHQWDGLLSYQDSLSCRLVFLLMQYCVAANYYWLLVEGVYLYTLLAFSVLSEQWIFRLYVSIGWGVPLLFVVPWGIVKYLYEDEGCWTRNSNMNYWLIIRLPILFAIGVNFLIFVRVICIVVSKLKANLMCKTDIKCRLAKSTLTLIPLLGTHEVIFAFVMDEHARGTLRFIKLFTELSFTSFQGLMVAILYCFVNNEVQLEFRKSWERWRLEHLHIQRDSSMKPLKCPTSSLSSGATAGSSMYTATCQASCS

EC50 (hGIPR [1]) [nM] | EC50 (hGLP-1R [2]) [nM] | EC50 (human GcgR) [nM] | EC50 (hGIPR [3]) [nM] | EC50 (hGLP-1R [4]) [nM] | EC50 (hGcgR) [nM] | CL/F (in vivo) [mL/min/kg] | half-life (in vivo) [h] | Compound | Body weight (%) ([5]; 9 days) | EC50 (hGIPR [3]; [6]) [nM] | EC50 (hGLP-1R [4]; [6]) [nM] | EC50 (hGcgR; [6]) [nM] | Body weight (%) ([5]; 14 days)
6.36 | 24.7 | 496 | 0.0558 | 0.362 | 4.27 | 16.2 | 8.3 | Y[Aib]QGT[αMePhe(2-F)]TSD[4Pal][αMeS]I[αMeL]LD[Orn]K([AEEA-γGlu-C18 diacid])AQ[Aib][Orn]FI[dE]YLIEGGPSSGEPPPSEG-NH2 [Example 463] | 83.31 ± 2.10 | – | – | – | –
1.62 | 12.9 | 183 | 0.0148 | 0.204 | 1.69 | 10 | 11 | H-Y[Aib]QGT[αMePhe(2-F)]TSD[4Pal][αMeS]I[αMeL]LD[Orn]K([AEEA-γGlu-C18 diacid])AQ[Aib][Orn]FI[dE][αMeY]LIEGGPSSGEPPPEEG-NH2 [Example 462] | 73.68 ± 2.82 | – | – | – | –
7.01 | 24.5 | 176 | – | – | – | 9.83 | 8.3 | CC[C@H](C)[C@H](NC(=O)[C@H](Cc1ccccc1)NC(=O)[C@H](C)NC(=O)C(C)(C)NC(=O)[C@H](CCC(N)=O)NC(=O)[C@H](C)NC(=O)[C@H](CCCCNC(=O)COCCOCCNC(=O)CC[C@H](NC(=O)CCCCCCCCCCCCCCCCC(=O)O)C(=O)O)NC(=O)[C@H](CCCN)NC(=O)[C@H](CC(=O)O)NC(=O)[C@H](CC(C)C)NC(=O)[C@](C)(CC(C)C)NC(=O)[C@@H](NC(=O)[C@](C)(CO)NC(=O)[C@H](Cc1ccc(O)cc1)NC(=O)[C@H](CC(=O)O)NC(=O)[C@H](CO)NC(=O)[C@@H](NC(=O)[C@](C)(Cc1ccccc1F)NC(=O)[C@@H](NC(=O)CNC(=O)[C@H](CCC(N)=O)NC(=O)C(C)(C)NC(=O)[C@@H](N)Cc1c[nH]cn1)[C@@H](C)O)[C@@H](C)O)[C@@H](C)CC)C(=O)N[C@H](CCC(=O)O)C(=O)N[C@@H](Cc1ccc(O)cc1)C(=O)N[C@@H](CC(C)C)C(=O)N[C@@H](CC(C)C)C(=O)N[C@@H](CCC(=O)O)C(=O)NCC(=O)NCC(=O)N1CCC[C@H]1C(=O)N[C@@H](CO)C(=O)N[C@@H](CO)C(=O)NCC(=O)N[C@@H](CCC(=O)O)C(=O)N1CCC[C@H]1C(=O)N1CCC[C@H]1C(=O)N1CCC[C@H]1C(=O)N[C@@H](CCC(=O)O)C(N)=O [Example 381] (H-H[Aib]QGT[αMePhe(2-F)]TSDY[αMeS]I[αMeL]LD[Orn]K([AEEA-γGlu-C18 diacid])AQ[Aib]AFI[dE]YLLEGGPSSGEPPPE-NH2) | – | 0.0156 | 0.157 | 1.39 | –

Compound | EC50 (hGIPR [1]) [nM] | EC50 (hGLP-1R [2]) [nM] | EC50 (human GcgR) [nM] | EC50 (hGIPR [3]) [nM] | EC50 (hGLP-1R [4]) [nM] | EC50 (hGcgR) [nM] | CL/F (in vivo) [mL/min/kg] | half-life (in vivo) [h] | Body weight (%) ([5]; 9 days) | EC50 (hGIPR [3]; [6]) [nM] | EC50 (hGLP-1R [4]; [6]) [nM] | EC50 (hGcgR; [6]) [nM] | Body weight (%) ([5]; 14 days)
CC[C@H](C)[C@H](NC(=O)[C@H](Cc1ccccc1)NC(=O)[C@H](CCCN)NC(=O)C(C)(C)NC(=O)[C@H](CCC(N)=O)NC(=O)[C@H](C)NC(=O)[C@H](CCCCNC(=O)COCCOCCNC(=O)CC[C@H](NC(=O)CCCCCCCCCCCCCCCCC(=O)O)C(=O)O)NC(=O)[C@H](CCCN)NC(=O)[C@H](CC(=O)O)NC(=O)[C@H](CC(C)C)NC(=O)[C@](C)(CC(C)C)NC(=O)[C@@H](NC(=O)[C@](C)(CO)NC(=O)[C@H](Cc1ccc(O)cc1)NC(=O)[C@H](CC(=O)O)NC(=O)[C@H](CO)NC(=O)[C@@H](NC(=O)[C@](C)(Cc1ccccc1F)NC(=O)[C@@H](NC(=O)CNC(=O)[C@H](CCC(N)=O)NC(=O)C(C)(C)NC(=O)[C@@H](N)Cc1ccc(O)cc1)[C@@H](C)O)[C@@H](C)O)[C@@H](C)CC)C(=O)N[C@H](CCC(=O)O)C(=O)N[C@@](C)(Cc1ccc(O)cc1)C(=O)N[C@@H](CC(C)C)C(=O)N[C@@H](CC(C)C)C(=O)N[C@@H](CCC(=O)O)C(=O)NCC(=O)NCC(=O)N1CCC[C@H]1C(=O)N[C@@H](CO)C(=O)N[C@@H](CO)C(=O)NCC(=O)N[C@@H](CCC(=O)O)C(=O)N1CCC[C@H]1C(=O)N1CCC[C@H]1C(=O)N1CCC[C@H]1C(=O)N[C@@H](CO)C(N)=O [Example 368] (H-Y[Aib]QGT[αMePhe(2-F)]TSDY[αMeS]I[αMeL]LD[Orn]K([AEEA-γGlu-C18 diacid])AQ[Aib][Orn]FI[dE][αMeY]LLEGGPSSGEPPPS-NH2) | 2.62 | 37.4 | 111 | – | – | – | 7.33 | 9.6 | – | 0.0121 | 0.242 | 0.481 | 52.52 +/− 2.49**** %
